Experimental data reported in US20100129436A1, “SUBTANCES FOR THE PROTECTION OF CELLS AND/OR TISSUES” (priority 2007, published 2010).

What follows are compounds tested on endothelial cells, e.g. cells of the endothelium of the human umbilical cord vein (assay: Protection of cultured endothelial cells against cold-induced damage (lactate dehydrogenase release)). Settings: Homo sapiens, Endothelial cell; cells pre-incubated with test substance, medium replaced, then incubated e.g. 24 hours at 0° C; LDH in supernatant; read-out: EC50 (concentration at which 50% of the release of lactate dehydrogenase is inhibited).
Assay type: cell-based
Method: The active substances are synthesised as described below. The action of the substances on cold-induced damage to cells is quantified in a model system. For this purpose, endothelial cells, e.g. cells of the endothelium of the human umbilical cord vein, are cultured. The cells are incubated with various concentrations of the test substances for variable periods of time and then the medium is replaced by fresh medium without any test substance. Next, the cells are incubated e.g. for 24 hours at 0° C. At the end of the incubation period, the lactate dehydrogenase released is determined in the supernatant of the culture vessels by known methods, this concentration being a measure of cell damage. The effectiveness of the individual compounds is determined by the concentration at which 50% of the release of lactate dehydrogenase is inhibited (EC50).

CNCC(O)c1ccc(O)c(O)c1 (stereo not shown) [Adrenalin, reference compound] and NC[C@H](O)c1ccc(O)c(O)c1 [Noradrenalin, reference compound] are within 1.5-fold of each other in EC50: 600 µM for the first, 700 µM for the second.

Going from CC(CCc1ccc(O)cc1)NCCc1ccc(O)c(O)c1 (stereo not shown) [Dobutamine, reference compound] to O=C(CCc1ccccc1)NCCc1ccc(O)c(O)c1 [N-(3-Phenylpropanoyl) dopamine], the EC50 rises from 5 µM to 9 ± 1 µM (1.8-fold). The first is the more potent here.

Compared with NCCc1ccc(O)c(O)c1 [Dopamine, reference compound], CCCCCCCC(=O)NCCc1ccc(O)c(O)c1 [N-Octanoyl dopamine] is 36-fold lower in EC50: 75 µM for the first, 2.1 ± 0.2 µM for the second.

First: Cc1ccc(S(=O)(=O)NCCc2ccc(O)c(O)c2)cc1 [N-(4-Methylphenylsulfonyl) dopamine]
Second: CCCCCCCCCC(=O)NCCc1ccc(O)c(O)c1 [N-Decanoyl dopamine]
The EC50 of the first is 13-fold higher: 12 ± 1 µM for the first, 0.9 ± 0.2 µM for the second.

CCCCCCCCCCCC(=O)NCCc1ccc(O)c(O)c1 [N-Dodecanoyl dopamine] and CCCCCCCCCCCCCC(=O)NCCc1ccc(O)c(O)c1 [N-Tetradecanoyl dopamine] are within error of each other in EC50: 1.2 ± 0.2 µM for the first, 1.3 ± 0.2 µM for the second.

Same assay, conditions: cells pre-incubated with test substance, medium replaced, then incubated e.g. 24 hours at 0° C; LDH in supernatant; read-out: EC50 (concentration at which 50% of the release of lactate dehydrogenase is inhibited)

Going from CCCCCCCCNC(=O)c1cccc(O)c1O [2,3-Dihydroxybenzoyl amidooctane] to CCCCCCCCNC(=O)c1cc(O)ccc1O [2,5-Dihydroxybenzoyl amidooctane], the EC50 rises from 1.2 ± 0.1 µM to 6 ± 1 µM (5-fold). The first is the more potent here.

CCCCCCCCNC(=O)c1ccc(O)c(O)c1 [3,4-Dihydroxybenzoyl amidooctane] gave an EC50 of 2.4 ± 0.2 µM.
